Reference: US20240376113A1 (Volastra Therapeutics, Inc., priority 2020, published 2024)
Read-outs that look alike come from different tables or passages of the source.

Key:
ENPP-1 ECD = ENPP-1 ECD (Homo sapiens (Human), UniProt P22413); assay: Inhibition of ENPP1 hydrolysis of 2′,3′-cGAMP (Assay 1); settings: AMP-Glo luminescence, KI from IC50 via Cheng/Prusoff
Description: Test compounds were plated in a 3× dilution scheme in a 384 well plate.

[1] = target: ENPP1 on MDA-MB-231 cells (Homo sapiens (Human), UniProt P22413); assay: Inhibition of ENPP1 hydrolysis of AMP p-nitrophenyl ester on MDA-MB-231 cells (Assay 2); type: cell-based; settings: pNP-AMP 0.25 mM, MDA-MB-231 cells, 37° C. 3 h, KI,app from IC50 via Cheng/Prusoff
Description: Inhibition of ENPP1 Hydrolysis of AMP p-Nitrophenyl Ester on MDA-MB-231 Cells (Assay 2)
ENPP1 is normally expressed on the human metastatic breast cancer cell line MDA-MB-231. Hydrolysis of the p-nitrophenyl ester of AMP (pNP-AMP), an isostere of ATP, is selectively catalyzed by ENPP1 in the supernatant of MDA-MB-231 cell cultures. Inhibition of the hydrolysis of pNP-AMP by MDA-MB-231 at pH 7.4 and 37° C. is a good model of physiologically relevant activity of membrane-bound ENPP1 at disease-relevant expression levels.
MDA-MB-231 cells were harvested using TypLE Express Enzyme digestion and suspended in 100 μL of Leibovitz's L-15 Medium, 20% FBS, seeding the cells in a 96-well assay plate with 4.5×10^4 cells/well. Cells were incubated at 37 C with 1% CO2 for 24 h. In a separate dilution plate, 2× of top dose of compound was prepared in phenol-red free 1640 medium without FBS and then 1:3 serial diluted in the same medium. The cell culture medium of L15 medium was aspirated carefully and cells were washed with PBS once, and 50 μL per well of test compound or DMSO blank are added to the assay plate. Substrate mix (50 μL; 0.5 mM pNP-AMP in phenol-red free 1640 media without FBS) was added for a pNP-AMP final concentration of 0.25 mM. The system was incubated at 37° C. for 3 h.

[2] = Assay 1 KI values (class), 2,3-cGAMP 24 μM
[3] = read-out: Assay 2 KI,app values (class)
[4] = read-out: Assay 1 KI, 2,3-cGAMP 24 μM
[5] = read-out: Assay 1 KI values (class), 2,3-cGAMP 24 μM

ENPP-1 ECD, sequence (P22413 98-925): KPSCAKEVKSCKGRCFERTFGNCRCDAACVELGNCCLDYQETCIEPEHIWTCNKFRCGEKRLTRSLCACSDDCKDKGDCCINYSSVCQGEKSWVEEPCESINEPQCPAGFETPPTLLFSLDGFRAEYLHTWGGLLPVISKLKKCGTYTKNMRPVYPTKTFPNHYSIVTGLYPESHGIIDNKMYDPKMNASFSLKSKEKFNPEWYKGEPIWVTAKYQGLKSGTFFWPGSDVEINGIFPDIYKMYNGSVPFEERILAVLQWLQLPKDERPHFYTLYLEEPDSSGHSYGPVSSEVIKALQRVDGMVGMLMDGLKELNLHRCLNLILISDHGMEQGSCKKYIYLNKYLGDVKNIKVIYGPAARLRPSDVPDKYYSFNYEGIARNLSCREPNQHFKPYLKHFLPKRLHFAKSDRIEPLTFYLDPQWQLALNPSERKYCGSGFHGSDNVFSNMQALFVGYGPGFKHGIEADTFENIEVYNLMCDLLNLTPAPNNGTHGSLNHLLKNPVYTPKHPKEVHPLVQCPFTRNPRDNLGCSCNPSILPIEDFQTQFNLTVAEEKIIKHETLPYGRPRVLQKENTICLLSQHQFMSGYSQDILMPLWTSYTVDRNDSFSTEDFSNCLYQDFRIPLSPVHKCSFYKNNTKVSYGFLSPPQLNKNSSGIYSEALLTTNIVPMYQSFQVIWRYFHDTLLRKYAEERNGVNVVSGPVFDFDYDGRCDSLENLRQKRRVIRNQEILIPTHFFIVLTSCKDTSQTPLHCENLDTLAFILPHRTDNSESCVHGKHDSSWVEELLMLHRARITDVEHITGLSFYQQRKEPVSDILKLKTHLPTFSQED
ENPP1 on MDA-MB-231 cells, sequence (P22413 whole entry): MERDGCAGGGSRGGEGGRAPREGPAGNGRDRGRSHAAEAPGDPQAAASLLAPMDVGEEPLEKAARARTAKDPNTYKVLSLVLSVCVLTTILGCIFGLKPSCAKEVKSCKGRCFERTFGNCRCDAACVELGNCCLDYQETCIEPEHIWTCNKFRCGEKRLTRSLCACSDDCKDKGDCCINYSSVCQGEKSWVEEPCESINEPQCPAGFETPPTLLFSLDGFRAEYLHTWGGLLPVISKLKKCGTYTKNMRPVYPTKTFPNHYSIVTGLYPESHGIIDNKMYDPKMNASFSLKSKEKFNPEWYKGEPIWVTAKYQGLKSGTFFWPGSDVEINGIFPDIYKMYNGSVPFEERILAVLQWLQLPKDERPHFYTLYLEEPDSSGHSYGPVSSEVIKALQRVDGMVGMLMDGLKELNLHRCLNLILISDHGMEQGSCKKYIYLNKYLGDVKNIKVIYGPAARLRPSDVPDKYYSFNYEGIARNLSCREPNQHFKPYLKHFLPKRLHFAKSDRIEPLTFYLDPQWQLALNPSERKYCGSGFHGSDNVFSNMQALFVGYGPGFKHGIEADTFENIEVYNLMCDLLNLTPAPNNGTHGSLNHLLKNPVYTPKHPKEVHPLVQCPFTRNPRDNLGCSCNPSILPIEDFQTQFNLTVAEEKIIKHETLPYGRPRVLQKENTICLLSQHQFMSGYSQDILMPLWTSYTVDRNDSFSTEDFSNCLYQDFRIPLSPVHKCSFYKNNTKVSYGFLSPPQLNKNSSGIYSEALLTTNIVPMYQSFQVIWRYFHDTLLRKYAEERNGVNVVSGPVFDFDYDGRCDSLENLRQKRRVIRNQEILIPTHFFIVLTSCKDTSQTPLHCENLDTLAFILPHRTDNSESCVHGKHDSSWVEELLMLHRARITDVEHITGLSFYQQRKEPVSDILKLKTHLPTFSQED

| Compound | Ki (ENPP-1 ECD; [2]) [nM] | Ki ([1]; read-out: Assay 2 KI, app) [nM] | Ki [1, 3] [nM] | Ki (ENPP-1 ECD; [4]) [nM] | Ki (ENPP-1 ECD; [5]) [nM] |
| --- | --- | --- | --- | --- | --- |
| Cc1nc2ncnn2c(N(C)C)c1Cc1ccc(S(=N)(=O)CCN)cc1 (stereo not shown) [Compound 73, (2-aminoethyl)(4-{[7-(dimethylamino)-5-methyl-[1,2,4]triazolo[1,5-a]pyrimidin-6-yl]methyl}phenyl)imino-λ^6-sulfanone] | < 3 | 7.7 | < 10 | – | – |
| Cc1nc2nccn2c(N(C)C)c1Cc1ccc(S(C)(=N)=O)cc1 (stereo not shown) [Compound 29, (4-{[5-(dimethylamino)-7-methylimidazo[1,2-a]pyrimidin-6-yl]methyl}phenyl)(imino)methyl-λ^6-sulfanone] | < 3 | 12.2 | > 10 | 0.252 | – |
| CN(C)c1c(Cc2ccc(S(C)(=N)=O)cc2)c(C#N)nc2ncnn12 (stereo not shown) [Compound 79, 7-(dimethylamino)-6-({4-[imino(methyl)oxo-λ^6-sulfanyl]phenyl}methyl)-[1,2,4]triazolo[1,5-a]pyrimidine-5-carbonitrile] | < 3 | 74.4 | > 10 | 2.86 | – |
| Cc1c(Cc2ccc([S@@](C)(=N)=O)cc2)c(N(C)C)n2ncnc2c1C#N (single isomer, unassigned) [Compound 85a] | – | 0.298 | – | 0.00604 | – |
| Cc1nc2ncnn2c(N2CCCCC2)c1Cc1ccc(S(C)(=N)=O)cc1 (stereo not shown) [Compound 16, imino(methyl)(4-((5-methyl-7-(piperidin-1-yl)-[1,2,4]triazolo[1,5-a]pyrimidin-6-yl)methyl)phenyl)-λ^6-sulfanone] | < 3 | 14.9 | > 10 | 0.0814 | – |
| Cc1cc2ncnn2c(N(C)C)c1Cc1ccc([S@](C)(=N)=O)cc1 (single isomer, unassigned) [Compound 28a] | – | 0.56 | < 10 | 0.00806 | < 3 |
| Cc1nc2ncnn2c(N(C)C)c1Cc1ccc([S@@](=N)(=O)CCC(=O)O)cc1 [Compound 72a] | – | 0.505 | – | 0.00881 | – |
| Cc1nc2ncnn2c(N2CCCCC2)c1Cc1ccc([S@](C)(=N)=O)cc1 [Compound 16a] | – | 11.9 | > 10 | 0.0627 | < 3 |
| Cc1c(Cc2ccc(S(C)(=N)=O)cc2)c(N(C)C)n2ccnc2c1C#N (stereo not shown) [Compound 80, 5-(dimethylamino)-6-({4-[imino(methyl)oxo-λ^6-sulfanyl]phenyl}methyl)-7-methylimidazo[1,2-a]pyridine-8-carbonitrile] | < 3 | 2.54 | < 10 | 0.0443 | – |
| CCN(C)c1c(Cc2ccc(S(C)(=N)=O)cc2)c(C)nc2ncnn12 (stereo not shown) [Compound 12, (4-((7-(ethyl(methyl)amino)-5-methyl-[1,2,4]triazolo[1,5-a]pyrimidin-6-yl)methyl)phenyl)(imino)(methyl)-λ^6-sulfanone] | < 3 | 48.9 | > 10 | 0.479 | – |
| Cc1nc2ncnn2c(N2CCCC2)c1Cc1ccc(P(=O)(O)O)cc1 [Compound 36, (4-{[5-methyl-7-(pyrrolidin-1-yl)-[1,2,4]triazolo[1,5-a]pyrimidin-6-yl]methyl}phenyl)phosphonic acid] | < 3 | 5.68 | < 10 | 0.512 | – |
| Cc1nc2ncnn2c(N(C)C)c1Cc1ccc(S(=N)(=O)CCC(=O)O)cc1 (stereo not shown) [Compound 72, 3-[(4-{[7-(dimethylamino)-5-methyl-[1,2,4]triazolo[1,5-a]pyrimidin-6-yl]methyl}phenyl)(imino)oxo-λ^6-sulfanyl]propanoic acid] | < 3 | 0.769 | < 10 | 0.0285 | – |
| [2H]C([2H])([2H])N(c1c(Cc2ccc(S(C)(=N)=O)cc2)c(C)nc2ncnn12)C([2H])([2H])[2H] (stereo not shown) [Compound 49, [4-[{7-[di(^2H3)methylamino]-5-methyl-[1,2,4]triazolo[1,5-a]pyrimidin-6-yl}methyl)phenyl](imino)methyl-λ^6-sulfanone] | < 3 | 4.7 | < 10 | 0.0621 | – |
| Cc1c(Cc2ccc([S@@](C)(=N)=O)cc2)c(N(C)C)n2ccnc2c1C#N [Compound 80a] | – | 0.589 | < 10 | 0.016 | < 3 |
| Cc1c(Cc2ccc(S(C)(=N)=O)cc2)c(N(C)C)n2ncnc2c1C#N (stereo not shown) [Compound 85, 5-(dimethylamino)-6-({4-[imino(methyl)oxo-λ^6-sulfanyl]phenyl}methyl)-7-methyl-[1,2,4]triazolo[1,5-a]pyridine-8-carbonitrile] | – | 0.724 | – | 0.0287 | – |
| Cc1nc2nccn2c(N(C)C)c1Cc1ccc([S@](C)(=N)=O)cc1 [Compound 29a] | – | 3.15 | < 10 | 0.106 | < 3 |
| Cc1nc2ncnn2c(N(C)C)c1Cc1ccc(P(=O)(O)O)cc1 [Compound 5, (4-{[7-(dimethylamino)-5-methyl-[1,2,4]triazolo[1,5-a]pyrimidin-6-yl]methyl}phenyl)phosphonic acid] | < 3 | 7.94 | < 10 | 0.851 | – |
